The target of experiment [1] is cIAP1-BIR3 (Homo sapiens, UniProt Q13490). The experiment can be described thus: Biacore SPR solution competition binding assay vs smac7mer peptide, cIAP1-BIR3. Particulars: 6 nM cIAP1-BIR3, read-out: CIAP-BIR3 Binding Biacore (Competitive) EC50. From the text: (§1) The compounds described herein above were profiled using a cellular assay (using Panc3.27 tumor cells) and a binding assay to determine the competition between the compounds of the present invention and smac7mer peptide for XIAP-BIR3 and cIAP1-BIR3 binding groove occupancy.
(§2) The present method includes utility of a Surface plasmon resonance (SPR)-based biosensor (Biacore™, GE Healthcare, Uppsala, Sweden) to examine competition between the compounds of the present invention and smac7mer peptide for XIAP-BIR3 and cIAP1-BIR3 binding groove occupancy.
(§3) Biacore™ utilizes the phenomenon of surface plasmon resonance (SPR) to detect and measure binding interactions. In a typical Biacore experiment, one of the interacting molecules is immobilized on a flexible dextran matrix while the interacting partner is flowed over the derivatized surface. A binding interaction results in an increase in mass on the sensor surface and a corresponding direct change in the refractive index of the medium in the vicinity of the sensor surface. Changes in refractive index or signal are recorded in resonance units (R.U.) Signal changes due to association and dissociation of complexes are monitored in a non-invasive manner, continuously and in real-time, the results of which are reported in the form of a sensorgram.
(§4) Biacore™ T100 (GE Healthcare, Uppsala, Sweden) was used to conduct all experiments reported herein. Sensor surface preparation and interaction analyses were performed at 25° C. Buffer and Biacore reagents were purchased from GE Healthcare. Running buffer containing 10 mM Hepes, pH7.4, 150 mM sodium chloride, 1.25 mM Dithiothreitol, 2% Dimethyl sulfoxide and 0.05% polysorbate 20 was utilized throughout all experiments.
(§5) Biotinylated smac7mer peptide was diluted to 10 nM in running buffer and captured onto a sensor surface pre-derivatized with streptavidin (sensor chip SA) towards peptide surface densities in the range 40-100 R.U. Peptide captured surfaces were blocked with 500 μM PEO2-Biotin (Thermo Scientific).
(§6) Interaction analyses were performed by first equilibrating each compound within a six point seven fold compound dilution series in the range 1 μM to 0.06 nM with either 100 nM XIAP-BIR3 or 6 nM cIAP1-BIR3 for at least one hour during instrument start-up procedures. Protein compound mixtures were then injected over reference and smac7mer peptide surfaces in series for 60 seconds at a flow-rate of 60 μL/min. Surface regeneration was performed at the end of each analysis cycle by a 30 second injection of 10 mM Glycine, pH 2.5, 1M Sodium Chloride, 0.05% polysorbate 20. Additionally, control compound samples and control XIAP-BIR3 or cIAP1-BIR3 samples were prepared and run at regular intervals to monitor surface and assay performance.
(§7) Data analyses were carried out using Biacore™ T100 evaluation software v2.0 to validate assay quality. Binding level report points were plotted versus logarithmic compound concentration values and analyzed in Graphpad prism 5 via non-linear regression using a one-site competition model. EC50 values were generated and used as a measure of inhibitor potency.

The target of experiment [2] is XIAP-BIR3 (Homo sapiens, UniProt P98170). The experiment can be described thus: Biacore SPR solution competition binding assay vs smac7mer peptide, XIAP-BIR3. Conditions: 100 nM XIAP-BIR3, read-out: XIAP-BIR3 Binding Biacore (Competitive) EC50.
From the text: as §1, §2, §3, §4, §5, §6, §7

The subject of experiment [3] is Panc3.27 tumor cells. The experiment can be described thus: Cellular assay: Panc3.27 tumor cell proliferation (Cell Titer Glo). In kind it is cell-based. Conditions: Panc3.27 cells, 4000 cells per well, 72 hour growth, CTG readout, percent control growth; read-out: PANC proliferation IC50. How it is done:
as §1
Cellular Assay—Treatment of Panc3.27 Tumor Cells with Dimeric IAP Antagonists
On day one adherent Panc3.27 cells are plated into two 96-well, clear, flat bottom plates. All wells in row A contain 90 uL of media. All wells in rows B-G contain a total volume of 90 uL per well and 4000 cells per well for Panc3.27 cell lines. Plates are then incubated overnight for 18 hours at 37° C., 5% CO2.
On day two cells are treated with the compounds of formula M-L-M′. Treatments are done in triplicate. The compounds are first serially diluted in DMSO and then added to media giving a final concentration of 0.2% DMSO when added to cells. Cells are treated with 10 uL of serially diluted compounds of formula M-L-M′ at a final concentration of 1000 nM, 200 nM, 40 nM, 8 nM, 1.6 nM, 0.32 nM, 0.06 nM, 0.013 nM, 0.0026 nM, and one untreated well. Plate two is used as a time zero plate.
To measure cell viability 50 uL of Cell Titer Glo (CTG) solution is added to row A, media only and B, cells and media. CTG is purchased from Promega Corporation catalog number G7573. The solution is prepared according to manufacturer's instructions. CTG measures the amount of ATP released from viable cells that is proportional to the number of cells in each well. After incubating for ten minutes with CTG plates are measured on a luminescent reader at 700 nm wavelength. Read time is approximately one second per well for a 96-well plate.
On day five 50 uL of CTG is added to plate one, rows A-G, incubated for 10 minutes at room temperature and read on a luminescent reader. Raw data is adjusted to account for the time zero plate as well as background noise. Triplicate values are averaged and percent control growth is calculated. Percent control growth is calculated using the following logical test: If well read data point (a) is greater than time zero data point (t=0), then 100*[(a)−(t=0)]/[(72 hour total growth)−(t=0)], OR 100*[(a)−(t=0)]/[(t=0)]. Data is represented by line graph with the concentration of compound on the x axis and percent control growth on the y axis.

Where [4] appears, read: SPR competition with captured smac7mer peptide, 25° C.

SMILES strings stand for the structures. Like-named read-outs stand apart in the source and are kept apart here.

Sequence of cIAP1-BIR3 (Q13490 253-363 limits assumed): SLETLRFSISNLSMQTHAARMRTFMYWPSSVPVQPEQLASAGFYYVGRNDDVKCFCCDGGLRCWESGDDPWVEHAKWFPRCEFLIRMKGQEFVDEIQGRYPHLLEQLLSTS
Sequence of XIAP-BIR3 (P98170 241-356 limits assumed): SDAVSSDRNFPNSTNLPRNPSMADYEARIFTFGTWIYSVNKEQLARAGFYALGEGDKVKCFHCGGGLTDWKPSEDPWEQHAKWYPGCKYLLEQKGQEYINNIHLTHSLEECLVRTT

`CN[C@@H](C)C(=O)N[C@H](C(=O)N1CCC[C@H]1c1cncc(-c2ccc(F)c(C(=O)NCCCOCCOCCOCCOCCOCCCNC(=O)c3cc(-c4cncc([C@@H]5CCCN5C(=O)[C@@H](NC(=O)[C@H](C)NC)C5CCCCC5)c4)ccc3F)c2)c1)C1CCCCC1` [Example 1A-1]: the EC50 in experiment [1] (Tested as the citrate salt (footnote 1), SPR competition with smac7mer peptide) was 1.55 to 1.6 nM; in experiment [2] (setting [4]) it was 353 to 359 nM. Further, the IC50 in experiment [3] was 0.15 to 2.87 nM.
As for `CN[C@@H](C)C(=O)N[C@H](C(=O)N1CCC[C@H]1c1cncc(-c2ccc(F)c(C(=O)NCCNC(=O)c3cc(-c4cncc([C@@H]5CCCN5C(=O)[C@@H](NC(=O)[C@H](C)NC)C5CCCCC5)c4)ccc3F)c2)c1)C1CCCCC1` [Example 2A-1], the half-maximal effective concentration (EC50) in experiment [1] (setting [4]) lay in the range of 1.1 to 1.11 nM; in experiment [2] (setting [4]) it was 135 to 136 nM. In experiment [3], the IC50 lay in the range of 2.11 to 7.69 nM.
With `CN[C@@H](C)C(=O)N[C@H](C(=O)N1CCC[C@H]1c1cncc(-c2ccc(F)c(C(=O)NCc3ccc(CNC(=O)c4cc(-c5cncc([C@@H]6CCCN6C(=O)[C@@H](NC(=O)[C@H](C)NC)C6CCCCC6)c5)ccc4F)cc3)c2)c1)C1CCCCC1` [Example 2B-1, (S,S,S)—N,N′-(1,4-phenylenebis(methylene))bis(5-(5-((S)-1-((S)-2-cyclohexyl-2-((S)-2-(methylamino)propanamido)acetyl)pyrrolidin-2-yl)pyridin-3-yl)-2-fluorobenzamide)], the EC50 in experiment [1] (setting [4]) was 0.77 to 0.79 nM; in experiment [2] (setting [4]) it was 347 to 353 nM. Besides, in experiment [3], the IC50 was under 0.0026 nM.
As for `CN[C@@H](C)C(=O)N[C@H](C(=O)N1CCC[C@H]1c1cncc(-c2ccc(F)c(C(=O)NCc3ccc(-c4ccc(CNC(=O)c5cc(-c6cncc([C@@H]7CCCN7C(=O)[C@@H](NC(=O)[C@H](C)NC)C7CCCCC7)c6)ccc5F)cc4)cc3)c2)c1)C1CCCCC1` [Example 2C-2, (S,S,S)—N,N′-(biphenyl-4,4′-diylbis(methylene))bis(5-(5-((S)-1-((S)-2-cyclohexyl-2-((S)-2-(methylamino)propanamido)acetyl)pyrrolidin-2-yl)pyridin-3-yl)-2-fluorobenzamide)], the EC50 was 0.98 to 0.99 nM in experiment [1] (setting [4]) and 2330 to 2390 nM in experiment [2] (Tested as the trifluoroacetate salt (footnote 2), SPR competition with smac7mer peptide). The IC50 in experiment [3] is under 0.0026 nM.
On to `CN[C@@H](C)C(=O)N[C@H](C(=O)N1CCC[C@H]1c1cncc(-c2ccc(F)c(C(=O)NCCCCCCCCCCNC(=O)c3cc(-c4cncc([C@@H]5CCCN5C(=O)[C@@H](NC(=O)[C@H](C)NC)C5CCCCC5)c4)ccc3F)c2)c1)C1CCCCC1` [Example 2D-1], for which the EC50 in experiment [1] (setting [4]) lay within 1.35 to 2.17 nM; in experiment [2] (setting [4]), 1520 to 1920 nM. Further, the IC50 in experiment [3] was in the range of 0.0026 to 0.15 nM.
Take `CN[C@@H](C)C(=O)N[C@H](C(=O)N1CCC[C@H]1c1cncc(-c2ccc(F)c(C(=O)NCCCCCCCCCCCCNC(=O)c3cc(-c4cncc([C@@H]5CCCN5C(=O)[C@@H](NC(=O)[C@H](C)NC)C5CCCCC5)c4)ccc3F)c2)c1)C1CCCCC1` [Example 2E-1]: the EC50 in experiment [1] (setting [4]) was 5.65 to 6.37 nM; in experiment [2] (setting [4]) it was over 1000 nM. The IC50 in experiment [3] was 0.07 to 4.93 nM.
With `CN[C@@H](C)C(=O)N[C@H](C(=O)N1CCC[C@H]1c1cncc(-c2ccc(F)c(C(=O)NCCCCCCNC(=O)c3cc(-c4cncc([C@@H]5CCCN5C(=O)[C@@H](NC(=O)[C@H](C)NC)C5CCCCC5)c4)ccc3F)c2)c1)C1CCCCC1` [Example 2F-1], the values for the EC50 in experiment [1] (setting [4]) and in experiment [2] (setting [4]) were 1.34 to 1.36 nM and 305 to 306 nM, respectively. Besides, the IC50 in experiment [3] was in the range of 0.0026 to 0.01 nM.
For `CN[C@@H](C)C(=O)N[C@H](C(=O)N1CCC[C@H]1c1cncc(-c2ccc(F)c(C(=O)NCCCCCCCCNC(=O)c3cc(-c4cncc([C@@H]5CCCN5C(=O)[C@@H](NC(=O)[C@H](C)NC)C5CCCCC5)c4)ccc3F)c2)c1)C1CCCCC1` [Example 2G-1, (S,S,S)—N,N′-(octane-1,8-diyl)bis(5-(5-((S)-1-((S)-2-cyclohexyl-2-((S)-2-(methylamino)propanamido)acetyl)pyrrolidin-2-yl)pyridin-3-yl)-2-fluorobenzamide)], the EC50 in experiment [1] (setting [4]) is 1.26 to 1.31 nM; in experiment [2] (setting [4]), 426 to 495 nM. Moreover, the IC50 in experiment [3] lay within 0.0026 to 0.03 nM.
For the compound `CN[C@@H](C)C(=O)N[C@H](C(=O)N1CCC[C@H]1c1cncc(-c2ccc(F)c(C(=O)NCCOCCOCCNC(=O)c3cc(-c4cncc([C@@H]5CCCN5C(=O)[C@@H](NC(=O)[C@H](C)NC)C5CCCCC5)c4)ccc3F)c2)c1)C1CCCCC1` [Example 2H-1], the EC50 in experiment [1] (setting [4]) fell in the range of 1.84 to 1.89 nM; in experiment [2] (setting [4]), 244 to 252 nM. Also, the IC50 in experiment [3] lay in the range of 0.03 to 0.07 nM.
`CN[C@@H](C)C(=O)N[C@H](C(=O)N1CCC[C@H]1c1cncc(-c2ccc(F)c(C(=O)NCCCCNC(=O)c3cc(-c4cncc([C@@H]5CCCN5C(=O)[C@@H](NC(=O)[C@H](C)NC)C5CCCCC5)c4)ccc3F)c2)c1)C1CCCCC1` [Example 2I-1]: the EC50 in experiment [1] (setting [4]) was 2.79 to 2.8 nM; in experiment [2] (setting [4]), 318 to 326 nM. Also, the IC50 in experiment [3] lay in the range of 0.0026 to 0.4 nM.
Regarding `CN[C@@H](C)C(=O)N[C@H](C(=O)N1CCC[C@H]1c1cncc(-c2ccc(F)c(C(=O)NCCCOCCOCCOCCCNC(=O)c3cc(-c4cncc([C@@H]5CCCN5C(=O)[C@@H](NC(=O)[C@H](C)NC)C5CCCCC5)c4)ccc3F)c2)c1)C1CCCCC1` [Example 2J-2], the EC50 in experiment [1] (setting [4]) was 1.39 to 1.4 nM; in experiment [2] (setting [4]), 156 nM. In addition, the IC50 in experiment [3] fell in the range of 0.03 to 0.59 nM.
`CN[C@@H](C)C(=O)N[C@H](C(=O)N1CCC[C@H]1c1cncc(-c2ccc(F)c(C(=O)N[C@H]3CC[C@H](NC(=O)c4cc(-c5cncc([C@@H]6CCCN6C(=O)[C@@H](NC(=O)[C@H](C)NC)C6CCCCC6)c5)ccc4F)CC3)c2)c1)C1CCCCC1` [Example 2K-1]: the EC50 in experiment [1] (setting [4]) was 1.65 to 1.66 nM; in experiment [2] (setting [4]) it was 321 to 322 nM. The IC50 in experiment [3] was under 0.0026 nM.
Regarding `CN[C@@H](C)C(=O)N[C@H](C(=O)N1CCC[C@H]1c1cncc(-c2ccc(F)c(C(=O)NCCCOCCOCCCNC(=O)c3cc(-c4cncc([C@@H]5CCCN5C(=O)[C@@H](NC(=O)[C@H](C)NC)C5CCCCC5)c4)ccc3F)c2)c1)C1CCCCC1` [Example 2L-2], the values for the EC50 in experiment [1] (setting [4]) and in experiment [2] (setting [4]) were 3.35 to 3.38 nM and 480 to 488 nM, respectively. The IC50 in experiment [3] fell in the range of 0.01 to 0.56 nM.
On the same counts, the results for `CN[C@@H](C)C(=O)N[C@H](C(=O)N1CCC[C@H]1c1cncc(-c2ccc(F)c(C(=O)N3CC4(C3)CN(C(=O)c3cc(-c5cncc([C@@H]6CCCN6C(=O)[C@@H](NC(=O)[C@H](C)NC)C6CCCCC6)c5)ccc3F)C4)c2)c1)C1CCCCC1` [Example 2M-2] are 3.74 to 3.75 nM, 176 to 177 nM and 9.02 to 40.8 nM.

(Values after patent publication US20130266590A1, “DIMERIC IAP INHIBITORS” (NOVARTIS AG, priority 2010, published 2013).)
